# In patent US10072025B2, “Ethyl N-boc piperidinyl pyrazolo pyridones as Janus kinase inhibitors” (Merck Sharp & Dohme Corp., priority 2014, dated 2018):
# Columns and labels:
# JAK1 = JAK1 (Homo sapiens (Human), UniProt P23458); test: Jak Biochemical HTRF Assay (JAK1); details: recombinant purified GST-tagged catalytic domain; HTRF; [ATP] 31.8 μM; [E] 1.405 nM
# Method: (§1) Jak Biochemical HTRF Assay Protocol
# (§2) The ability of compounds to inhibit the activity of JAK1, JAK2, JAK3, and Tyk2 was measured using a recombinant purified GST-tagged catalytic domain for each enzyme (Invitrogen JAK1 #M4290, JAK2 #M4290, JAK3 #M4290, Tyk2 #M4290) in an HTRF format biochemical assay. […] The basic assay protocol is as follows: First, 250 nL of diluted compounds in DMSO were dispensed into the wells of a dry 384-well Black plate (Greiner #781076) using a Labcyte Echo 555 acoustic dispenser. Subsequent reagent additions employed an Agilent Bravo. Next, 18 μL of 1.11× enzyme and 1.11× substrate in 1× assay buffer (Invitrogen kinase buffer # PV3189, 2 mM DTT, 0.05% BSA) were added to the wells and shaken and then preincubated for 30 minutes at room temperature to allow compound binding to equilibrate. After equilibration, 2 μL of 10×ATP in 1× assay buffer was added to initiate the kinase reaction and the plates were shaken and then incubated at room temperature for 120 minutes. At the end of the incubation, 20 μL of 2× stop buffer (streptavidin-Dylight 650 (Thermo #84547B/100 mL), Eu-tagged pY20 antibody (Perkin Elmer #AD0067), EDTA, HEPES, and Triton) was added to quench the reaction. Plates were shaken and centrifuged and then incubated 60 minutes at room temperature and then read on a Perkin Elmer Envision (Xex=337 nm, λem=665 and 615 nm, TRF delay time=20 μs). HTRF signal=10,000*665 nm reading/615 nm reading. After normalization to untreated controls, the percent inhibition of the HTRF signal at each compound concentration was calculated. The plot of percent inhibition versus the log of compound concentration was fit with a 4-parameter dose response equation to calculate IC50 values.
# JAK2 = JAK2 (Homo sapiens (Human), UniProt O60674); test: Jak Biochemical HTRF Assay (JAK2); details: recombinant purified GST-tagged catalytic domain, [ATP] 8.5 μM, [E] 0.052 nM
# Method: as §1, §2
# Sequence of JAK1 (P23458 875-1153): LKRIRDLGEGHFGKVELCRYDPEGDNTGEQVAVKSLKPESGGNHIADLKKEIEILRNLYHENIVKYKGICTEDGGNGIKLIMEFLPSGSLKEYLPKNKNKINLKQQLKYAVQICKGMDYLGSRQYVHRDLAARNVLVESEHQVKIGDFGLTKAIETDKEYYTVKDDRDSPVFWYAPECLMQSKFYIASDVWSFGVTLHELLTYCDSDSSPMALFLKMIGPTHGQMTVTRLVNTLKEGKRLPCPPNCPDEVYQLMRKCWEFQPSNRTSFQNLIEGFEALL
# Sequence of JAK2 (O60674 849-1124): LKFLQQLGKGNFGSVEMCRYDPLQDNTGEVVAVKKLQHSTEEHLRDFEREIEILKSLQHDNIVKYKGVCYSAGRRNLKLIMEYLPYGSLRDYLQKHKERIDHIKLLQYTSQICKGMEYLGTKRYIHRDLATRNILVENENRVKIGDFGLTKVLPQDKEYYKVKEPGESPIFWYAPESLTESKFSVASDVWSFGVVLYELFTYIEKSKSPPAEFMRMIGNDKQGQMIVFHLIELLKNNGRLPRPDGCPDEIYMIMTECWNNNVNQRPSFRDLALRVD
Compound,IC50 (JAK1) [pM],IC50 (JAK2) [pM]
"CCC1(n2nc(Nc3ccc(C(=O)N4CCOCC4(C)C)c(C)c3)c3c(=O)[nH]ccc32)CCN(C(=O)OC(C)(C)C)CC1 [Example 3-5, tert-butyl 4-[3-({4-[(3,3-dimethylmorpholin-4-yl)carbonyl]-3-methylphenyl}amino)-4-oxo-4,5-dihydro-1H-pyrazolo[4,3-c]pyridin-1-yl]-4-ethylpiperidine-1-carboxylate]",730,1210
"CCC1(n2nc(Nc3ccc(C(=O)N4CCOC[C@H]4C)c(C)c3)c3c(=O)[nH]ccc32)CCN(C(=O)OC(C)(C)C)CC1 [Example 2-28, (R)-tert-butyl-4-ethyl-4-(3-(3-methyl-4-(3-methylmorpholine-4-carbonyl)phenylamino)-4-oxo-4,5-dihydropyrazolo[4,3-c]pyridin-1-yl) piperidine-1-carboxylate]",540,510
"CCC1(n2nc(Nc3ccc(C(=O)N4CCOC5(CCCC5)C4)c(C)c3)c3c(=O)[nH]ccc32)CCN(C(=O)OC(C)(C)C)CC1 [Example 3-3, tert-butyl 4-ethyl-4-(3-{[3-methyl-4-(6-oxa-9-azaspiro[4.5]dec-9-ylcarbonyl)phenyl]amino}-4-oxo-4,5-dihydro-1H-pyrazolo[4,3-c]pyridin-1-yl) piperidine-1-carboxylate]",990,1530
"CCC1(n2nc(Nc3ccc(C(=O)N4CCSCC4)c(C(F)F)c3)c3c(=O)[nH]ccc32)CCN(C(=O)OC(C)(C)C)CC1 [Example 2-25, tert-butyl 4-(3-(3-(difluoromethyl)-4-(thiomorpholine-4-carbonyl)phenylamino)-4-oxo-4,5-dihydropyrazolo[4,3-c]pyridin-1-yl)-4-ethylpiperidine-1-carboxylate]",1730,2800
"CCC1(n2nc(Nc3ccc(C(=O)N4CCOC[C@@H]4C)c(C)c3)c3c(=O)[nH]ccc32)CCN(C(=O)OC(C)(C)C)CC1 [Example 2-6, (S)-tert-butyl 4-ethyl-4-(3-((3-methyl-4-(3-methylmorpholine-4-carbonyl)phenyl)amino)-4-oxo-4,5-dihydro-1H-pyrazolo[4,3-c]pyridin-1-yl) piperidine-1-carboxylate]",510,510
"CCC1(n2nc(Nc3ccc(C(=O)N4[C@H](C)COC[C@@H]4C)c(C)c3)c3c(=O)[nH]ccc32)CCN(C(=O)OC(C)(C)C)CC1 [Example 2-18, tert-butyl 4-(3-(4-((3S,5R)-3,5-dimethylmorpholine-4-carbonyl)-3-methylphenylamino)-4-oxo-2,3,4,5-tetrahydropyrazolo[4,3-c]pyridin-1-yl)-4-ethylpiperidine-1-carboxylate]",610,–
"CCC1(n2nc(Nc3ccc(C(O)C(F)(F)F)cc3)c3c(=O)[nH]ccc32)CCN(C(=O)OC(C)(C)C)CC1 (stereo not drawn) [Example 2-43, tert-butyl 4-ethyl-4-(4-oxo-3-((4-(2,2,2-trifluoro-1-hydroxyethyl)phenyl)amino)-4,5-dihydro-1H-pyrazolo[4,3-c]pyridin-1-yl) piperidine-1-carboxylate]",900,2910
CCC1(n2nc(Nc3ccc(C(C)(OC)C(F)(F)F)cc3)c3c(=O)[nH]ccc32)CCN(C(=O)OC(C)(C)C)CC1 (stereo not drawn) [Example 2-41],4400,6870
"CCC1(n2nc(Nc3ccc(C(=O)N4CCOCC4)c(F)c3)c3c(=O)[nH]ccc32)CCN(C(=O)OC(C)(C)C)CC1 [Example 2-12, tert-butyl 4-ethyl-4-(3-((3-fluoro-4-(morpholine-4-carbonyl)phenyl)amino)-4-oxo-4,5-dihydro-1H-pyrazolo[4,3-c]pyridin-1-yl) piperidine-1-carboxylate]",560,740
"CCC1(n2nc(Nc3ccc(C(=O)N4C[C@H](C)O[C@@H](C)C4)c(C)c3)c3c(=O)[nH]ccc32)CCN(C(=O)OC(C)(C)C)CC1 [Example 3-7, tert-butyl 4-{3-[(4-{[(2S,6S)-2,6-dimethylmorpholin-4-yl]carbonyl}-3-methylphenyl)amino]-4-oxo-4,5-dihydro-1H-pyrazolo[4,3-c]pyridin-1-yl}-4-ethylpiperidine-1-carboxylate]",520,630
"CCC1(n2nc(Nc3ccc4c(c3)CN(C3(C)CCC(F)(F)CC3)C4=O)c3c(=O)[nH]ccc32)CCN(C(=O)OC(C)(C)C)CC1 [Example 2-2, tert-butyl 4-(3-(2-(4,4-difluoro-1-methylcyclohexyl)-1-oxoisoindolin-5-ylamino)-4-oxo-4,5-dihydropyrazolo[4,3-c]pyridin-1-yl)-4-ethylpiperidine-1-carboxylate]",3210,3160
"CCc1cc(Nc2nn(C3(CC)CCN(C(=O)OC(C)(C)C)CC3)c3cc[nH]c(=O)c23)ccc1C(=O)N1CCSCC1 [Example 2-29, tert-butyl 4-ethyl-4-(3-(3-ethyl-4-(thiomorpholine-4-carbonyl)phenylamino)-4-oxo-4,5-dihydropyrazolo[4,3-c]pyridin-1-yl) piperidine-1-carboxylate]",1790,2720
"CCC1(n2nc(Nc3ccc4c(c3)CN(C3CCOCC3)S4(=O)=O)c3c(=O)[nH]ccc32)CCN(C(=O)OC(C)(C)C)CC1 [Example 2-5, tert-butyl 4-ethyl-4-(3-{[2-(oxan-4-yl)-1,1-dioxo-2,3-dihydro-1,2-benzothiazol-5-yl]amino}-4-oxo-1H,4H,5H-pyrazolo [4,3-c]pyridin-1-yl) piperidine-1-carboxylate]",540,600
"CCC1(n2nc(Nc3ccc([C@]4(C(F)(F)F)CCCN4)cc3)c3c(=O)[nH]ccc32)CCN(C(=O)OC(C)(C)C)CC1 (single isomer, unassigned) [Example 2-35, (S or R)-tert-butyl 4-ethyl-4-(4-oxo-3-(4-(2-(trifluoromethyl)pyrrolidin-2-yl)phenylamino)-4,5-dihydropyrazolo[4,3-c]pyridin-1-yl) piperidine-1-carboxylate]",2820,3550
"CCC1(n2nc(Nc3ccc(C(=O)N4[C@@H](C)COC[C@@H]4C)c(C)c3)c3c(=O)[nH]ccc32)CCN(C(=O)OC(C)(C)C)CC1 (single isomer, unassigned) [Example 2-19, tert-butyl 4-(3-(4-((3S,5S or 3R,5R)-3,5-dimethylmorpholine-4-carbonyl)-3-methylphenylamino)-4-oxo-4,5-dihydropyrazolo[4,3-c]pyridin-1-yl)-4-ethylpiperidine-1-carboxylate]",850,–
"CCC1(n2nc(Nc3ccc(C(=O)N4[C@H](C)COC[C@H]4C)c(C)c3)c3c(=O)[nH]ccc32)CCN(C(=O)OC(C)(C)C)CC1 (single isomer, unassigned) [Example 2-20, tert-butyl 4-(3-(4-((3R,5R or 3S,5S)-3,5-dimethylmorpholine-4-carbonyl)-3-methylphenylamino)-4-oxo-4,5-dihydropyrazolo[4,3-c]pyridin-1-yl)-4-ethylpiperidine-1-carboxylate]",790,–
"CCC1(n2nc(Nc3ccc(S(=O)(=O)N4CCC[C@@H]4C)cc3)c3c(=O)[nH]ccc32)CCN(C(=O)OC(C)(C)C)CC1 (single isomer, unassigned) [Example 2-38, (S or R)-tert-butyl 4-ethyl-4-(3-(4-(2-methylpyrrolidin-1-ylsulfonyl)phenylamino)-4-oxo-4,5-dihydropyrazolo[4,3-c]pyridin-1-yl) piperidine-1-carboxylate]",2380,–
"CCC1(n2nc(Nc3ccc(C(=O)N4CCCOC(C)C4)c(C)c3)c3c(=O)[nH]ccc32)CCN(C(=O)OC(C)(C)C)CC1 (single isomer, unassigned) [Example 3-22, tert-butyl 4-ethyl-4-[3-({3R or 3S-methyl-4-[(2-methyl-1,4-oxazepan-4-yl)carbonyl]phenyl}amino)-4-oxo-4,5-dihydro-1H-pyrazolo [4,3-c]pyridin-1-yl] piperidine-1-carboxylate]",–,870
"CCC1(n2nc(Nc3ccc(C(=O)N4CCCOC(C)C4)c(C)c3)c3c(=O)[nH]ccc32)CCN(C(=O)OC(C)(C)C)CC1 (single isomer, unassigned) [Example 3-23, tert-butyl 4-ethyl-4-[3-({3R or 3S-methyl-4-[(2-methyl-1,4-oxazepan-4-yl)carbonyl]phenyl}amino)-4-oxo-4,5-dihydro-1H-pyrazolo [4,3-c]pyridin-1-yl] piperidine-1-carboxylate]",–,700
"CCC1(n2nc(Nc3ccc(S(=O)(=O)N4CCC[C@H]4C)cc3)c3c(=O)[nH]ccc32)CCN(C(=O)OC(C)(C)C)CC1 (single isomer, unassigned) [Example 2-39, (R or S)-tert-butyl 4-ethyl-4-(3-(4-(2-methylpyrrolidin-1-ylsulfonyl)phenylamino)-4-oxo-4,5-dihydropyrazolo[4,3-c]pyridin-1-yl) piperidine-1-carboxylate]",2130,–
